Assay results taken from ChEMBL document CHEMBL5604061, “ASAP - WNV NS2B-NS3 protease fluorescence dose response” (2024).

Molecular target: T1, NS3 (West Nile virus, UniProt K4FQI5)
T1 sequence (K4FQI5 whole entry): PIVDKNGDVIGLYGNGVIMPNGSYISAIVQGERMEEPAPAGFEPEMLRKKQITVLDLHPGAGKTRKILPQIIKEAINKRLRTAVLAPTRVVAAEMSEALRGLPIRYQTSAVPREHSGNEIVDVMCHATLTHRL
Assay: Functional biochemical assay to identify treatments for viral infectious disease that targets West Nile NS2B-NS3 protease. Utilizing a direct enzyme activity measurement method, reading the fluorescence intensity is used to characterize the relative potency of inhibitors as IC50.
Parameters: species or system NY-99

For `CN(c1ccc2c(c1)CNC2)[C@H](C(=O)NCC(F)F)c1cc(Cl)cc(C2CC2)c1`, which IC50 is on record?
The IC50 was 0.131 µM.

Which IC50 does the source give for `CCOC(=O)[C@H](Nc1ccc2c(c1)CNC2)c1cc(Cl)cc(C2CC2)c1` here?
The IC50 was 0.845 µM.

`O=C(NCC(F)F)[C@H](Nc1ccc2c(c1)CNC2)c1cc(Cl)ccc1Sc1ccccc1` was tested. Which IC50 did it give?
The IC50 was 9.51 µM.

With `Cc1cc(C(=O)Nc2ccc3c(c2)CNC3)cc2nc[nH]c12` as the compound, how does the IC50 read?
Its IC50 is 12.5 µM.

`O=C(Nc1ccc2c(c1)CNC2)c1ccc2[nH]cc(C3CCNCC3)c2c1` was tested. Which IC50 did it give?
Its IC50 is 11.5 µM.

With `COCc1cc(Cl)cc([C@H](Nc2ccc3c(c2)CNC3)C(=O)NCC(F)F)c1` as the compound, how does the IC50 read?
The IC50 was 0.154 µM.

With `O=C(NCC(F)F)[C@H](Nc1ccc2c(c1)CNC2)c1cc(Cl)ccc1Cl` as the compound, how does the IC50 read?
The IC50 was 3.01 µM.

For `N#Cc1ccc(-c2nc3c(C(=O)Nc4ccc5c(c4)CNC5)cc(F)cc3[nH]2)cc1`, which IC50 is on record?
Its IC50 is 2.91 µM.

With `O=C(Nc1ccc2c(c1)CNC2)c1cc(F)cc2[nH]c(CC[C@H]3CCCOC3)nc12` as the compound, how does the IC50 read?
The IC50 was 3.78 µM.

Which IC50 does the source give for `O=C(NCC(F)F)[C@H](Nc1ccc2c(c1)CNC2)c1cccc(Cl)c1` here?
The IC50 was 0.477 µM.

For `CC(C)c1nnc(-c2nc3c(C(=O)Nc4ccc5c(c4)CNC5)cc(F)cc3[nH]2)s1`, which IC50 is on record?
Its IC50 is 11.8 µM.

Which IC50 does the source give for `CN1C(=O)CC[C@H]1c1nc2c(C(=O)Nc3ccc4c(c3)CNC4)cc(F)cc2[nH]1` here?
The IC50 was 14.1 µM.

`CCOCC1(c2nc3c(C(=O)Nc4ccc5c(c4)CNC5)cc(F)cc3[nH]2)CC1` was tested. Which IC50 did it give?
The IC50 was 9.95 µM.

For `O=C(Nc1ccc2c(c1)CNC2)c1cc(F)cc2[nH]c(-c3cccc(F)c3)nc12`, which IC50 is on record?
The IC50 was 7.29 µM.

`Cc1ccccc1-c1nc2c(C(=O)Nc3ccc4c(c3)CNC4)cc(F)cc2[nH]1` was tested. Which IC50 did it give?
Its IC50 is 8.51 µM.

Which IC50 does the source give for `O=C(NCC(F)F)[C@H](Nc1ccc2c(c1)CNC2)c1cc(Cl)cc(Cl)c1Cl` here?
The IC50 was 0.936 µM.

`CCc1cc2c(cc1NC(=O)c1cc(F)cc3[nH]ncc13)CNC2` was tested. Which IC50 did it give?
The IC50 was 1.59 µM.

For `O=C(Nc1ccc2c(c1)CNC2)c1ccc2c(C3=CCNCC3)csc2c1`, which IC50 is on record?
The IC50 was 7.5 µM.

With `COc1ccc(Cl)cc1[C@H](Nc1ccc2c(c1)CNC2)C(=O)NCC(F)F` as the compound, how does the IC50 read?
The IC50 was 0.531 µM.

With `CS(=O)(=O)c1cc2c(cc1NC(=O)c1cc(F)cc3[nH]ncc13)CNC2` as the compound, how does the IC50 read?
The IC50 was 2.51 µM.

With `O=C(Nc1ccc2c(c1)CNC2)c1cc(F)cc2[nH]c(-c3cnccc3O)nc12` as the compound, how does the IC50 read?
The IC50 was 9.93 µM.

Which IC50 does the source give for `O=C(NCC(F)F)[C@H](Nc1ccc2c(c1)CNC2)c1cc(Cl)cc2c1CCC2` here?
The IC50 was 0.42 µM.

For `O=C(NCC(F)F)[C@H](Nc1ccc2c(c1)CNC2)c1cc(Cl)cc2ccoc12`, which IC50 is on record?
The IC50 was 0.185 µM.

`O=C(Nc1ccc2c(c1)CNC2)c1cccc2c1[C@]1(CCN(C(=O)OCc3ccccc3)C1)C(=O)N2` was tested. Which IC50 did it give?
The IC50 was 3.55 µM.

How did the IC50 turn out when `COc1cc(C#N)cc([C@H](Nc2ccc3c(c2)CNC3)C(=O)NCC(F)F)c1` was run?
The IC50 was 0.243 µM.

With `N#Cc1csc2cc(C(=O)Nc3ccc4c(c3)CNC4)ccc12` as the compound, how does the IC50 read?
The IC50 was 25.2 µM.

For `Cn1nccc1-c1cc(NC(=O)c2cc(F)cc3[nH]ncc23)cc2c1CNC2`, which IC50 is on record?
The IC50 was 1.43 µM.

With `COC(=O)c1cc2c(cc1NC(=O)c1cc(F)cc3[nH]ncc13)CNC2` as the compound, how does the IC50 read?
The IC50 was 1 µM.

`O=C(Nc1ccc2c(c1)CNC2)c1cc(F)cc2[nH]c(CCc3cccnc3)nc12` was tested. Which IC50 did it give?
Its IC50 is 3.31 µM.

`O=C(Nc1ccc2c(c1)CN[C@H]2CO)c1cc(F)cc2[nH]ncc12` was tested. Which IC50 did it give?
Its IC50 is 4.53 µM.

With `O=C(Nc1ccccc1)OCc1ccccc1` [BENZYL PHENYLCARBAMATE] as the compound, how does the IC50 read?
The IC50 was > 100 µM.

How did the IC50 turn out when `O=C(Nc1ccccc1)Oc1ccccc1` [PHENYL PHENYLCARBAMATE] was run?
The IC50 was > 100 µM.
